Measurements taken from PMC3348135, “Identification of New Agonists and Antagonists of the Insect Odorant Receptor Co-Receptor Subunit” (PLoS ONE, 2012).
Read-outs that look alike come from different tables or passages of the source.

Legend:
Onub\Orco + Onub\Or1 = experiment: Inhibition of odorant (E12-14:OAc) activation of Onub\Orco + Onub\Or1 in Xenopus oocytes; assay type: cell-based, Ostrinia nubilalis; details: OLC compound 100 µM
Protocol: (§1) Oocytes were surgically removed from mature Xenopus laevis frogs. Follicle cells were removed by treatment with Collagenase B (Boehringer Mannhem) for 2 hours at room temperature. Capped cRNA encoding each DmOR subunit was generated using mMessage mMachine kits (Ambion). For heteromeric ORs, 25 ng of cRNA encoding each OR subunit was injected into Stage V-VI Xenopus oocytes. For expression of Orco alone, 50 ng of cRNA was injected. Oocytes were incubated at 18°C in Barth’s saline (in mM: 88 NaCl, 1 KCl, 2.4 NaHCO3, 0.3 CaNO3, 0.41 CaCl2, 0.82 MgSO4, 15 HEPES, pH 7.6, and 150 µg/ml ceftazidime) for 2–5 days prior to electrophysiological recording.
Odorant and Orco ligand induced currents were recorded under two-electrode voltage clamp in Xenopus laevis oocytes expressing ORs, using an automated parallel electrophysiology system (OpusExpress 6000A; Molecular Devices). Oocytes were perfused with ND96 (in mM: 96 NaCl, 2 KCl, 1 CaCl2, 1 MgCl2, 5 HEPES, pH 7.5). Odorant stock solutions (0.5 or 1 M) and Orco ligand stock solutions (100 mM) were prepared in DMSO and diluted in ND96. […]
Initial analysis of electrophysiological data was done using Clampfit 9.1 software (Molecular Devices). […] Statistical significance was assessed using a two-tailed unpaired t test, an F test, or a one-way analysis of variance followed by the Bonferroni’s post-test, as appropriate.

Agam\Orco + Agam\Or65 = molecular target: T1, Agam\Orco + Agam\Or65 (Anopheles gambiae, UniProt Q7QCC7); experiment: Inhibition of odorant (eugenol) activation of Agam\Orco + Agam\Or65 in Xenopus oocytes; assay type: cell-based, A. gambiae; details: 100 nM eugenol; OLC compound 100 µM
T1 construct: expressed in transfected cells; host or cells: Xenopus laevis oocytes (cRNA injection; vectors pSP64T-Oligo and pT7TS)
T1 sequence (Q7QCC7 1-478): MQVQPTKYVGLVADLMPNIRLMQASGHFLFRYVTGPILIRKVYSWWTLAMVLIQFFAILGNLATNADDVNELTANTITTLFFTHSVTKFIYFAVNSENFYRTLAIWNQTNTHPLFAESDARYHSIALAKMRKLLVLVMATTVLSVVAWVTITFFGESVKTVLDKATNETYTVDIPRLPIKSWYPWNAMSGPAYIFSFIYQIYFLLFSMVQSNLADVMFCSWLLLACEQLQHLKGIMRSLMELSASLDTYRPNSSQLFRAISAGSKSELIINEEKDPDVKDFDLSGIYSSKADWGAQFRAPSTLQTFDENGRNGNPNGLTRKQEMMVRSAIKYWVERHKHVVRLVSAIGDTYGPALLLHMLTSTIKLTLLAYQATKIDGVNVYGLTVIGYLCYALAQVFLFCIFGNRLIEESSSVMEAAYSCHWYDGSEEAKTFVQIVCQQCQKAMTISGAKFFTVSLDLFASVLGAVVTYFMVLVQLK

Dmel\Orco + Dmel\Or35a [1] = molecular target: T2, Dmel\Orco + Dmel\Or35a (Drosophila melanogaster, UniProt Q9VNB5); experiment: Inhibition of OLC12 activation of Dmel\Orco + Dmel\Or35a in Xenopus oocytes; assay type: cell-based
T2 construct: expressed in transfected cells; host or cells: Xenopus laevis oocytes (cRNA injection, pGEMHE)
T2 sequence (Q9VNB5 1-486): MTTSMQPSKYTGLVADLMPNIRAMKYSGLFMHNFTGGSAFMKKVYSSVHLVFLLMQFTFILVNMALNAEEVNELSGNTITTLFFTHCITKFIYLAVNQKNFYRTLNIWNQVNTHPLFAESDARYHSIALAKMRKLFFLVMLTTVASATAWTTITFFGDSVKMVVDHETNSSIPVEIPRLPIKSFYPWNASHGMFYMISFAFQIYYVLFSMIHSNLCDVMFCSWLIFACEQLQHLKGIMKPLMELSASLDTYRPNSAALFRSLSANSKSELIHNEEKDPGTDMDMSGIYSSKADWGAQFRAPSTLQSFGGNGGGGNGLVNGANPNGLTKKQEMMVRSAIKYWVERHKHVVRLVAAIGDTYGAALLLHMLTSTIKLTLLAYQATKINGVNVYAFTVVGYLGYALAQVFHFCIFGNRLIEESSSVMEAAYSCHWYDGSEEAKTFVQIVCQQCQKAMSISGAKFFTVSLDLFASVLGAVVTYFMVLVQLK
T2 sequence (Q9V3Q2 1-409 partner): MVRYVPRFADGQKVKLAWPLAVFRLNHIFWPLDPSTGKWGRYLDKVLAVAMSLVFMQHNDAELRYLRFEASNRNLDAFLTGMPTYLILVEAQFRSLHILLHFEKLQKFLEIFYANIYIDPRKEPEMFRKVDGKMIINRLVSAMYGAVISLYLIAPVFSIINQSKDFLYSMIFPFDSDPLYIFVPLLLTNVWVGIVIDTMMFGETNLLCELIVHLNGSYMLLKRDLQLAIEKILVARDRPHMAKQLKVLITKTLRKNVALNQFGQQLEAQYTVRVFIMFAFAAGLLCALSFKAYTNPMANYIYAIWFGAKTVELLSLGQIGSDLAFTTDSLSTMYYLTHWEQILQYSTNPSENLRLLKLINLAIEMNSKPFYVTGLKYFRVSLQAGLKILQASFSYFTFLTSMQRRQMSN
Protocol: as §1
(§2) Odorant and Orco ligand induced currents were recorded under two-electrode voltage clamp in Xenopus laevis oocytes expressing ORs, using an automated parallel electrophysiology system (OpusExpress 6000A; Molecular Devices). Oocytes were perfused with ND96 (in mM: 96 NaCl, 2 KCl, 1 CaCl2, 1 MgCl2, 5 HEPES, pH 7.5). Odorant stock solutions (0.5 or 1 M) and Orco ligand stock solutions (100 mM) were prepared in DMSO and diluted in ND96. Unless otherwise noted, applications were for 60 sec at a flow rate of 1.0 ml/min, with extensive washing in ND96 (9 or 20 min at 4.6 ml/min) between applications. Micropipettes were filled with 3 M KCl and had resistances of 0.2−2.0 MΩ. The holding potential was −70 mV. Current responses, filtered (4-pole, Bessel, low pass) at 20 Hz (−3 db) and sampled at 100 Hz, were captured and stored using OpusXpress 1.1 software (Molecular Devices).
In inhibition assays, oocytes were exposed to 60 sec applications of OLC12 with 9 min washes between applications (Fig. 3 and 4) or 60 sec applications of odorant with 20 min washes between applications (Fig. 5). Oocytes were then exposed to a 90 sec application of antagonist candidate, immediately followed by a 60 sec co-application of antagonist candidate and OLC12 or odorant. Oocytes were then exposed to a final 60 sec application of OLC12 or odorant. The current response in the presence of antagonist candidate was compared to the preceding response(s) to OLC12 (or odorant) alone.
(§3) Initial analysis of electrophysiological data was done using Clampfit 9.1 software (Molecular Devices). Curve fitting and statistical analyses were done using Prism 5 (Graphpad). Concentration-response data were fit to the equation: I = Imax/(1+(EC50/X)^n) where I represents the current response at a given concentration of odorant, X; Imax is the maximal response; EC50 is the concentration of agonist yielding a half maximal response; n is the apparent Hill coefficient. Concentration-inhibition data were fit to the equation: I = Imax/(1+(X/IC50)^n) where I represents the current response at a given concentration of inhibitor, X; Imax is the maximal response in the absence of inhibitor; IC50 is the concentration of inhibitor present that still allows a half maximal response from odorant; n is the apparent Hill coefficient. Statistical significance was assessed using a two-tailed unpaired t test, an F test, or a one-way analysis of variance followed by the Bonferroni’s post-test, as appropriate.

Dmel\Orco + Dmel\Or35a [2] = molecular target: T2, Dmel\Orco + Dmel\Or35a; experiment: Agonist activation of Dmel\Orco + Dmel\Or35a in Xenopus oocytes, two-electrode voltage clamp; assay type: cell-based; details: read-out: Response amplitude as percentage of response to 100 µM OLC3, Dmel\Orco + Dmel\Or35a
Protocol: as §1, §2, §3

[3] = activated by 10 µM OLC12 (EC25), read-out: IC50, Dmel\Orco + Dmel\Or35a (activated by 10 µM OLC12)

SMILES	Inhibition of activation of Onub\Orco+Onub\Or1 by E12-14:OAc (Onub\Orco + Onub\Or1)	Inhibition of activation of Agam\Orco+Agam\Or65 by eugenol (Agam\Orco + Agam\Or65)	IC50 (Dmel\Orco + Dmel\Or35a [1]; [3])	Emax at 100 µM (Dmel\Orco + Dmel\Or35a [2])	IC50 (Dmel\Orco + Dmel\Or35a [1]; activated by 100 µM OLC12, read-out: IC50, Dmel\Orco + Dmel\Or35a activated by 100 µM OLC12)
CCc1ccc(NC(=O)CSc2nnc(-c3ccccn3)n2CC)cc1 [OLC2]	inhibited	inhibited	24 ± 5 µM	2 ± 1%	
CCCCc1ccc(NC(=O)CSc2nnc(-c3ccccn3)n2CC)cc1 [OLC15]	inhibited	inhibited	15 ± 1 µM	0%	67 ± 7 µM
